Experiments:
[1] = target: T1, mutant integrin CD11bE320A/CD18 (Homo sapiens, UniProt P11215, E336A); test: HTS cell adhesion assay, K562 E320A cells on immobilized fibrinogen; format: cell-based; details: five point dose-response
T1 construct: expressed in transfected cells; host or cells: K562 (ATCC)
Procedure, shortened: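 K562 cells expressing the indicated CD11b/CD18 integrin were added to wells coated with 15 μg/mL fibrinogen and incubated with compound for 30 min at 37 °C in Ca2+/Mg2+ buffer. Non-adherent cells were removed by plate inversion. Adherent cells were fixed, stained with DAPI and counted by high-content imaging, scaled from 0% (1 mM Ca2+/Mg2+) to 100% (Mn2+ activation).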

integrin CD11c/CD18 = target: T2, integrin CD11c/CD18 (Homo sapiens, UniProt P20702); test: HTS cell adhesion assay, K562 CD11c/CD18 cells on immobilized fibrinogen; format: cell-based; details: for EC50 CD11c/CD18: Table 3, K562 CD11c/CD18 cells, adhesion to fibrinogen, dose-response
T2 construct: expressed in transfected cells; host or cells: K562 (ATCC)
Protocol: K562 cells stably expressing CD11c/CD18 (K562 CD11c/CD18) were generated similarly. Mutant CD11bE320A has been described previously. K562 cells stably transfected with mutant integrin CD11bE320A/CD18 (K562 E320A) were generated according to literature protocols. All cell lines were maintained in Iscove's Modified Dulbecco's Medium (IMDM) supplemented with 10% heat-inactivated fetal bovine serum, 50 IU/mL penicillin and streptomycin and 0.5 mg/mL G418.
Cell adhesion assays with immobilized ligands were performed using the general protocol previously described and as illustrated in FIG. 1 [33]. Assays with all different K562 cell lines (K562, K562 CD11b/CD18, K562 CD11c/CD18 and K562 E320A) were performed in an identical fashion. Briefly, 384-well microplates (Corning 3700) were coated with 15 μg/mL fibrinogen (Fg) ligand in PBS^++ overnight at 4° C. At the same time, anti-CD18 (IB4) mAb was also coated. Subsequently, the coated wells were washed with 1% nonfat milk in TBS at room temperature for 1 hour. Next, the wells were washed 3 times with TBS, and the coated microplates were used in the HTS assays.
K562 CD11b/CD18, K562 CD11bE320A/CD18 and K562 CD11c/CD18 cells were washed with TBS, and cells were transferred to the Fg-coated wells of microplates in the assay buffer (Ca^2+ and Mg^2+ for physiological condition, Mn^2+ as the Positive control). A 1 μL aliquot of the compounds were transferred to each washed well with multichannel pipet from the 384-well plates.
The assay plates were incubated at 37° C. in the presence of small-molecule compounds for 30 min. To dislodge the non-adherent cell, the assay plates were gently inverted and kept in inverted position for 20 min at room temperature.
The cells were fixed with 37% formaldehyde in a small volume and the plates were kept inverted for 1 h. Upon the fixation, the solutions in the well were discarded. Next, the cells were fluorescently labeled with DAPI (0.5 μM final in TBS with 0.1% Triton X-100) and the quantitated with “Opera High Content Screening System” (Perkin Elmer).
Cell-adhesion under positive and negative control conditions was used to define the activity scale; signal corresponding to the number of non-small molecule treated cells adherent in activating buffer condition (in the presence of Mn^2+ ions as agonist, PC) was considered maximum (100% binding) and the signal corresponding to the number of non-small molecule treated cells adherent in basal buffer condition (in the presence of 1 mM each of Ca^2+ and Mg^2+, NC) was considered minimum (0% binding). […]
The compounds were diluted in DMSO by the final concentration 10 μM, 5 μM, 2.5 μM, 1.25 μM and 0.625 μM and stocked as sealed in 384-well plates at −80° C.

[2] = Table 3, adhesion to fibrinogen

T1 sequence (P11215 17-1152 E336A): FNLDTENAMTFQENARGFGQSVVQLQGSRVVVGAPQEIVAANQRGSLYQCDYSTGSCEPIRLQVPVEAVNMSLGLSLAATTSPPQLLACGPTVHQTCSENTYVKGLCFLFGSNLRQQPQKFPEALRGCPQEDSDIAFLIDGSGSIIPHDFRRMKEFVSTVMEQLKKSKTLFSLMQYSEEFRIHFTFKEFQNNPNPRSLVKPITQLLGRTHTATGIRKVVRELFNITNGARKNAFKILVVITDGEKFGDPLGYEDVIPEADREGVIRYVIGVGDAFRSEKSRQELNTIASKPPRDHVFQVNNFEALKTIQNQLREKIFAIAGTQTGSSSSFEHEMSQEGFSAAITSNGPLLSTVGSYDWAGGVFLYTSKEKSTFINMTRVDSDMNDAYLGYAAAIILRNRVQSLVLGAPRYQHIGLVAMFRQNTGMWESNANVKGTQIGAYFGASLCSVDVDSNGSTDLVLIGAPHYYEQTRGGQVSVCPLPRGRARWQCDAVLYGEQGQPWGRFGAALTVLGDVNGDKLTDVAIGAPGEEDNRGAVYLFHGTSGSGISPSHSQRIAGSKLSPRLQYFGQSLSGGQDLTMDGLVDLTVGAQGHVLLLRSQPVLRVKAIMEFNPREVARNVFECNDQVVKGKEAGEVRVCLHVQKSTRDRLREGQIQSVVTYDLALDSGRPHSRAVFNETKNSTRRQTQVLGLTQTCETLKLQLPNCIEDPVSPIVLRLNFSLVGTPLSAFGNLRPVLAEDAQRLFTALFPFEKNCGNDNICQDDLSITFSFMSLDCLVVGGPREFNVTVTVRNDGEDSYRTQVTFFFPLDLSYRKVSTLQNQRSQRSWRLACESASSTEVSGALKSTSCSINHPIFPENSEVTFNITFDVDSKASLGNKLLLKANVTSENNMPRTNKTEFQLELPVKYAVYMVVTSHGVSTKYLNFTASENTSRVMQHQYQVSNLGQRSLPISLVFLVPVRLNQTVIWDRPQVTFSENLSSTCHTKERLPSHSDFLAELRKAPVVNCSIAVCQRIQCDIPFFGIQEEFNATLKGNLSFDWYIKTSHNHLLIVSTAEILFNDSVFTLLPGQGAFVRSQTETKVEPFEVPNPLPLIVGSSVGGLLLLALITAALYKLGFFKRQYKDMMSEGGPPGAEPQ
T1 sequence (P05107 23-769 partner): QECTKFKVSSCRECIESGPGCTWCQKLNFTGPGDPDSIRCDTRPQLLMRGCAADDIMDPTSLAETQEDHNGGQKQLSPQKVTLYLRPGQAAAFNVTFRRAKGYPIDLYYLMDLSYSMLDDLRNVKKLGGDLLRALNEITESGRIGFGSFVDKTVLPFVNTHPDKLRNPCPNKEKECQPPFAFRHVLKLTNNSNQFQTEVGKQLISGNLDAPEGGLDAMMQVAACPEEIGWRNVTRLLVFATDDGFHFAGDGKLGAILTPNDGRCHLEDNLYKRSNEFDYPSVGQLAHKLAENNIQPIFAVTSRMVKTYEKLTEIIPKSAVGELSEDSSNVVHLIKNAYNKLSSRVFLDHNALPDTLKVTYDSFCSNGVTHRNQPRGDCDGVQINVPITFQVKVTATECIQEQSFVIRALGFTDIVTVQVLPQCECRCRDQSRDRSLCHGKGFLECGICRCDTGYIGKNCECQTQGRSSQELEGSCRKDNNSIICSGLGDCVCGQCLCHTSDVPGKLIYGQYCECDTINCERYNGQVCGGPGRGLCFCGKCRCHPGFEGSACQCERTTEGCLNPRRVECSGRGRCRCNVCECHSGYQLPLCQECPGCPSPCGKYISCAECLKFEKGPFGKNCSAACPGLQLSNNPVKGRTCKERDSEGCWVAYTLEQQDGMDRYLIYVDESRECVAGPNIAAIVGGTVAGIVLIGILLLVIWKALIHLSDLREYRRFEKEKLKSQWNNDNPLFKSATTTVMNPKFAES
T2 sequence (P20702 with tags, fused parts or gaps): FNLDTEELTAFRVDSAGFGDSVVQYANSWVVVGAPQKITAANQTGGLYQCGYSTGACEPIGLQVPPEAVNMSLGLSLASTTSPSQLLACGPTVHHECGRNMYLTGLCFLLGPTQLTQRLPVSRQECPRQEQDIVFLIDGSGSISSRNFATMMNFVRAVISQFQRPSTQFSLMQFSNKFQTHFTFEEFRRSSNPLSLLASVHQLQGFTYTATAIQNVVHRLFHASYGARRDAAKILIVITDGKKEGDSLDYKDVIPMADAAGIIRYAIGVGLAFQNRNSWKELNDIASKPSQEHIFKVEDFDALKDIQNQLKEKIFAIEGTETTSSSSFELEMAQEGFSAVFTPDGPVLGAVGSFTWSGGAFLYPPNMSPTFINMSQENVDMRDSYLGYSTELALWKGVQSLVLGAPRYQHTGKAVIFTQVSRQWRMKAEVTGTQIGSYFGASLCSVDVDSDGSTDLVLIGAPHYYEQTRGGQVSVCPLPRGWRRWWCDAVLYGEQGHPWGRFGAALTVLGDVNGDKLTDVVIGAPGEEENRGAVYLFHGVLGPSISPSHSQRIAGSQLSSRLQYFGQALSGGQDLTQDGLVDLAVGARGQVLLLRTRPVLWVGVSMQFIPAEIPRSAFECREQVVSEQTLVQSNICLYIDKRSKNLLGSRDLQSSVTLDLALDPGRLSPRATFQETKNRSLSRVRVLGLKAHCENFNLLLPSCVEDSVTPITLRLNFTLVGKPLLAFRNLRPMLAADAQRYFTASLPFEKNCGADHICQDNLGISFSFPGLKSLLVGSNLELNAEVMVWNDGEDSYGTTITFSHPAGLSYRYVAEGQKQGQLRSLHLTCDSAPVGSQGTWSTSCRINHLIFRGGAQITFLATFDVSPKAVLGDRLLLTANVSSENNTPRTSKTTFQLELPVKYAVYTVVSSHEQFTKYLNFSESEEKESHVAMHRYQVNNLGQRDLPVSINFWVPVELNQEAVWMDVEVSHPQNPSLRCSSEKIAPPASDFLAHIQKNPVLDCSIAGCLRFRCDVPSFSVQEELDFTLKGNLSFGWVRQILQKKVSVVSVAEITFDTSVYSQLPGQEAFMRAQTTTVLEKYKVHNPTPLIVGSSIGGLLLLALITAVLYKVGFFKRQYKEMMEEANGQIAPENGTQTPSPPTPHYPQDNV
T2 sequence (P05107 23-769 partner): as the sequence (P05107 23-769 partner) above

EC50 [1, 2] [µM]	EC50 CD11c/CD18 (integrin CD11c/CD18)	EC50 (integrin CD11c/CD18) [µM]	EC50 ([1]; Table 4, adhesion to fibrinogen) [µM]	SMILES
21.9	Infinite	–	–	N#C/C(=C\c1ccc(OCc2ccccc2)cc1)C(=O)Nc1nc2c(s1)CCN(Cc1ccccc1)C2 [Compound 2327777]
6.84	–	2.46	–	Cc1ccccc1Cn1c(=O)n(CC2CCC(C(=O)NCCc3ccccc3)CC2)c(=O)c2ccccc21 (centres unmarked) [Compound 12006068]
0.994	–	0.564	–	COC(=O)c1[nH]c2ccc(C)cc2c1NC(=O)CN1CCCc2ccccc21 [Compound 658948]
4.24	–	3.78	–	CC(C)c1nc2sc3c(SCC(=O)NCc4ccco4)ncnc3c2c2c1CCC2 [Compound 664182]
4.92	–	2.63	–	CSc1nc(N(CCO)CCO)c2sc3nc(-c4ccco4)c4c(c3c2n1)CCC4 [Compound 665142]
5.3	–	2.63	–	O=c1c(-c2nc3ccccc3o2)c2oc3ccccc3n2c2ccccc12 [Compound 2321209]
3.49	–	2.28	–	Cc1cc(C)cc(OCC(=O)Nc2ccc(N3CCCC3)cc2)c1 [Compound 960705]
4.86	–	4.61	–	COc1ccc(-c2nnn(CC(=O)Nc3sc4c(c3C#N)CCCC4)n2)cc1 [Compound 652695]
2.69	–	1.38	–	Cc1ccc2nsnc2c1NC(=O)c1ccc(-c2cc(Cl)ccc2Cl)o1 [Compound 1334850]
5.17	–	1.99	–	CCOC(=O)Cc1csc(NC(=O)c2sc3nc4c(C)cc(C)cc4cc3c2N)n1 [Compound 3207334]
4.02	–	2.27	–	Cc1c(N2C(=O)c3ccc4c5c(ccc(c35)C2=O)CC4)c(=O)n(-c2ccccc2)n1C [Compound 1356461]
5.46	–	5.53	–	Cc1ccc(-n2c(N)c(C(=O)Nc3c(C)n(C)n(-c4ccccc4)c3=O)c3nc4ccccc4nc32)cc1 [Compound 1949560]
4.16	–	1.03	–	CCCCCCCC(=O)Nc1ccc(C(=O)N/N=C/c2cccc([N+](=O)[O-])c2)cc1 [Compound 9774264]
3.41	–	2.57	–	Cc1cc(OCC(=O)Nc2ccc(N3CCN(C(=O)c4ccco4)CC3)cc2)cc(C)c1Cl [Compound 1255242]
4.68	–	2.54	–	O=C(Nc1ccc2nc(-c3ccco3)c(-c3ccco3)nc2c1)N1CCCCCC1 [Compound 2214811]
3.69	–	1.35	–	Cc1ccc(CCN2CC(C(=O)NCCCN3CCCCCC3)CC2=O)cc1 (centres unmarked) [Compound 3237466]
6.23	–	5.84	–	COc1cc(NC(=O)Cn2c(=O)n(-c3cccc(C)c3)c(=O)c3c(C)c(C)sc32)cc(OC)c1 [Compound 12004750]
5.86	–	3.05	–	O=C(Nc1nc(-c2ccco2)c(-c2ccco2)s1)C1CC(=O)N(c2ccc3c(c2)OCCO3)C1 (centres unmarked) [Compound 2998894]
4.19	–	3.32	–	Cc1ccc(-n2nnnc2SCC(=O)Nc2ccc3c(c2)COC3=O)cc1C [Compound 1227337]
5.42	–	4.64	–	O=C(ONc1ccc(N=NC(=O)c2ccccc2O)cc1)c1ccccc1 [Compound 4483668]
6	–	5.01	–	CC1CCN(S(=O)(=O)c2ccc(NC(=O)Cn3nnc(-c4ccccc4)n3)cc2)CC1 [Compound 652267]
7.06	–	3.06	–	O=C(Nc1ccc(NC(=O)c2ccc(S(=O)(=O)c3ccccc3)cc2)cc1)c1ccccc1 [Compound 1144109]

EC50 [1, 2] [µM]	EC50 CD11c/CD18 (integrin CD11c/CD18)	EC50 (integrin CD11c/CD18) [µM]	EC50 ([1]; Table 4, adhesion to fibrinogen) [µM]	SMILES
6.42	–	2.56	–	COC(=O)c1ccc2c(c1)N(Cc1nc(-c3cccc(C)c3)oc1C)C(=O)C1CCCN21 (centres unmarked) [Compound 5309602]
5.05	–	2.13	–	CCn1c(=NC(=O)c2ccc(N3C(=O)CCC3=O)cc2)sc2c(OC)ccc(OC)c21 [Compound 2150886]
4.68	–	1.3	–	Cc1ccc(-c2ccc(/C=C(\C#N)C(=O)Nc3cc(C)nn3-c3ccccc3)o2)cc1 [Compound 1554430]
6.92	–	2.5	–	COc1ccccc1NC(=O)c1sc2ncn(Cc3ccc(C)cc3)c(=O)c2c1C [Compound 1078286]
15	Infinite	–	–	CCc1cc(=O)oc2cc(C)c3c(C)coc3c12 [Compound 707842]
4.43	–	1.87	–	O=C(Nc1nccs1)c1cccc(N2C(=O)c3cccc4c([N+](=O)[O-])ccc(c34)C2=O)c1 [Compound 2254616]
–	–	2.45	6.22	Cc1ccc(-c2nn3c(C)nnc3s2)cc1NC(=O)c1ccc(-c2cccc(Cl)c2)o1 [Compound 666410]
4.1	–	4.06	–	Nc1c(C(=O)Nc2nccs2)sc2nc(-c3cccs3)cc(C(F)(F)F)c12 [Compound 2252798]
0.209	1.669 (Reverse)	–	–	CCC(=O)Nc1c(C#N)c2nc3ccccc3nc2n1C1CCCCC1 [Compound 658936]
3.65	–	4.21	–	CS(=O)(=O)c1ccc2c(c1)SC1=NC(=O)/C(=C/c3ccco3)C(=N)N12 [Compound 1951731]
3.3	–	6.27	–	COc1cc(/C=C2\SC(N)=NC2=O)ccc1OCC(=O)Nc1ccc(C)cc1 [Compound 1308620]
2.53	–	2.54	–	C=CCOC(=O)c1cc(-c2ccc(/C=C3\C(=O)NC(=O)C(C#N)=C3C)o2)ccc1Cl [Compound 5769297]
4.44	–	5.39	–	Cc1ccc(-c2nc3ncccc3o2)cc1NC(=O)c1sc2ccccc2c1Cl [Compound 1132508]
2.35	–	2.01	–	C/C(=N/NC(=O)c1cc2ccccc2cc1O)C1C(=O)c2ccccc2C1=O [Compound 5431927]
259	Infinite	–	–	Cn1c(C(=O)NCCN2CCc3ccccc3C2)cc2c(=O)n(C)c3ccccc3c21 [Compound 5309909]
2.46	–	2.64	–	CC(=O)c1ccc(NC(=O)c2ccc3nc(-c4ccco4)c(-c4ccco4)nc3c2)cc1 [Compound 1331726]
5.99	–	6.26	–	Cc1onc(-c2c(Cl)cccc2Cl)c1C(=O)NC(=S)Nc1sc2c(c1C(N)=O)CCC(C)C2 (centres unmarked) [Compound 3466680]
9.84	Infinite	–	–	O=C(Oc1ccc2c(=O)c(Oc3ccc4ccccc4c3)coc2c1)c1cncc(Br)c1 [Compound 1045434]
5.71	–	2.23	–	N=C1/C(=C\c2ccc(-c3cc(Cl)cc(Cl)c3)o2)C(=O)N=C2SC=C(c3ccccc3)N12 [Compound 1599902]
6.72	–	5.05	–	Cc1ccc2nc(-c3ccc(NC(=O)CCS(=O)(=O)c4ccccc4)cc3)sc2c1 [Compound 12005977]
6.76	–	4.31	–	CCOc1ccc(NC(=O)c2ccc(CNc3c(NC4CCCCC4)c(=O)c3=O)cc2)cc1 [Compound 11957216]
